In patent publication US10357486B2, “Treatment of cognitive impairment with PDE4 inhibitor” (Universiteit Maastricht, priority 2013, dated 2019):

Key:
Format in all cases: in vivo, human
[1] = test system: healthy adults (18 to 35 years); assay: Spatial Memory Task, Stroop task and Continuous Performance task in healthy adults; conditions: 100 mcg, 300 mcg, 1000 mcg single administration
Method: In addition to the VLT (immediate recall and delayed recall), the subjects were also tested in the Spatial Memory Task, the Stroop task and the Continuous Performance task (a description of these additional cognitive battery tests can be found in Example 3).
Spatial memory task (SMT) The spatial memory task assesses spatial memory and is based on the object relocation task by Postma and colleagues (Kessels, Postma et al, Behav Res Methods Instrum Comput. 1999, Vol 31(3) pp 423-428). It consists of one immediate and two delayed conditions. In the immediate condition, a set of 10 pictures will be presented one by one on different locations within a white square on a computer screen. All pictures are everyday, easy-to-name objects, presented in gray scale (±3.5×5 cm). Each picture will be presented for 2000 msec with an interstimulus interval of 1000 msec. […]
Twenty-four hours after the immediate condition, subjects will return to the lab and perform the task again. […] As with the other tests, the EEG will be recorded during this task and this will later be analysed. No EEG will be recorded during the 24h-measurement. […]
Stroop task The Stroop task is well known for its ability to induce interference, and assesses response inhibition and focused attention. […] However, because of the urge to read the printed words (even if one is asked to ignore them) interference occurs. […]

[2] = test system: 60 to 80 years old subjects (Impaired Elderly and Healthy Elderly); assay: Bond-Lader Visual Analogue Scales (BL-VAS) in 60 to 80 years old subjects, interim analysis; conditions: low dose (100 mcg); at 45 min
Method: (§1) The study is conducted according to a double-blind, placebo-controlled, four-period cross-over design. Forty healthy subjects, both male and female within an age range of 60 to 80 years are planned to be included in the study in 2 groups: 1) 20 subjects with a memory performance between 1-2 Standard Deviation below the average for their age, gender, and educated level (Impaired Elderly) and 2) 20 subjects with age (±3 years), gender, and educational level matched (in order to speed up the study matching was stopped after the interim analysis) with an average memory performance between 0.5 Standard Deviation below and 0.5 Standard Deviation above from normative values (Healthy Elderly). Classification in terms of impaired or healthy elderly will be determined by a one-off testing of memory performance using the Rey Verbal Learning Task (Rey A; L'examen psychologique dans les cas d'encephalopathy traumatique 1958 Paris; Presses Universitaire de France; or Van der Elst et al; J Int Neuropsychol Soc 2005, 11 (3), pp 290-302) according to fully standardized procedures as applied in The Maastricht Aging Study (Jolles et al; Maastricht Aging Study; determinants of cognitive aging; Maastricht, The Netherlands, Neuropsych Publishers 1995). […]

[3] = test system: 60 to 80 years old subjects (Impaired Elderly and Healthy Elderly); assay: Spatial Memory Task and Stroop task in 60 to 80 years old subjects, interim analysis; conditions: 100, 250, 1000 mcg
Method: as §1

[4] = Plasma concentration levels of roflumilast and roflumilast-N-oxide in humans
Source text: An interim analysis has been performed based on the data of 9 subjects of the Impaired Elderly group and 4 subjects of the Healthy Elderly group. For this purpose, cognitive battery test scores (VLT, SMT, Stroop task and BL-VAS) and concentrations of roflumilast and roflumilast-N-oxide in plasma have been analysed and summarized by dose over each scheduled sampling time using descriptive statistics.

## O=C(Nc1c(Cl)cncc1Cl)c1ccc(OC(F)F)c(OCC2CC2)c1 [roflumilast, N-(3,5-dichloropyridin-4-yl)-3-cyclopropylmethoxy-4-difluoromethoxybenzamide]
[1]
  difference between placebo and drug treatment in the Spatial Memory Task, the Stroop task and the Continuous Performance task: No statistically significant differences
[2]
  (subjective) alertness in comparison with placebo, based on BL-VAS scores: significantly higher
[3]
  difference between placebo and drug treatment in the Spatial Memory Task and Stroop task: No statistically significant differences
[4]; elderly study, interim analysis, 100, 250, 1000 mcg
  exposure (concentrations in plasma): consistent with those previously reported
[4]; humans, once a day (24 h) regimen
  steady state plasma concentration levels in once a day repeated dosing compared to once a day single dosing: about two-fold
